# Reference: EP3771713A1 (priority 2019, dated 2021)
# “Also recorded” adds a separate entry of the source. Read-outs that look alike come from different tables or passages of the source.
# Tests used:
# HT-22 cells = assay type: cell-based, murine
# hAChE = hAChE (Homo sapiens, UniProt P22303); experiment: biochemical; assay type: biochemical
# [1] = system: Aβ25-35-induced learning impairments in mice; conditions: mouse, ip; for dose that significantly prevented Aβ25-35-induced learning impairments / most effective dose (completely prevented Aβ25-35 impairments in both tests): in vivo
# eeAChE = eeAChE (Electrophorus electricus, UniProt O42275); experiment: biochemical
# hCB2R [2] = molecular target: T1, hCB2R (Homo sapiens, UniProt P34972); experiment: biochemical; assay type: binding
# T1 construct: expressed in transfected cells; host or cells: HEK cells stably expressing hCB2R
# hCB1R = molecular target: T2, hCB1R (Homo sapiens, UniProt P21554); assay type: binding
# T2 construct: expressed in transfected cells; host or cells: CHO cells stably expressing hCB1R
# [3] = system: murine microglial cell line N9; experiment: Microglia activation: LPS-activated N9 cells, M1/M2 markers (Griess reaction, western blot); assay type: cell-based; conditions: N9 cells, 100 ng/mL LPS, 1-5 µM compound, 24 h
# Aβ42 = Aβ42 (Homo sapiens, UniProt P05067); experiment: Aβ42 self-aggregation, thioflavin-T fluorescence assay; assay type: biochemical; conditions: for inhibition at 50 µM: read-out: % inhibition Aβ aggregation self-induced; for inhibition of Aβ42 self-aggregation (in words): 1/1 ratio with Aβ42
# [4] = molecular target: hAChE-induced Aβ40 aggregation (Homo sapiens, UniProt P22303); experiment: biochemical; assay type: biochemical; conditions: for inhibition at 100 µM: [I] = 100 µM, Aβ40/hAChE ratio 100/1, mean ± SEM, read-out: % inhibition Aβ aggregation AChE-induced
# hBChE = hBChE (Homo sapiens, UniProt P06276); experiment: biochemical; assay type: biochemical
# hCB2R [5] = molecular target: T1, hCB2R; assay type: cell-based
# [6] = eeAChE from electric eel, read-out: IC50 AChE (eeAChE)
# [7] = 50 µM inhibitor and 50 µM Aβ42, mean ± SEM
# Aβ42, sequence (P05067 672-713): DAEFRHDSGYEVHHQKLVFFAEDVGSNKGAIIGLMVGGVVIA
# hBChE, sequence (P06276 29-602): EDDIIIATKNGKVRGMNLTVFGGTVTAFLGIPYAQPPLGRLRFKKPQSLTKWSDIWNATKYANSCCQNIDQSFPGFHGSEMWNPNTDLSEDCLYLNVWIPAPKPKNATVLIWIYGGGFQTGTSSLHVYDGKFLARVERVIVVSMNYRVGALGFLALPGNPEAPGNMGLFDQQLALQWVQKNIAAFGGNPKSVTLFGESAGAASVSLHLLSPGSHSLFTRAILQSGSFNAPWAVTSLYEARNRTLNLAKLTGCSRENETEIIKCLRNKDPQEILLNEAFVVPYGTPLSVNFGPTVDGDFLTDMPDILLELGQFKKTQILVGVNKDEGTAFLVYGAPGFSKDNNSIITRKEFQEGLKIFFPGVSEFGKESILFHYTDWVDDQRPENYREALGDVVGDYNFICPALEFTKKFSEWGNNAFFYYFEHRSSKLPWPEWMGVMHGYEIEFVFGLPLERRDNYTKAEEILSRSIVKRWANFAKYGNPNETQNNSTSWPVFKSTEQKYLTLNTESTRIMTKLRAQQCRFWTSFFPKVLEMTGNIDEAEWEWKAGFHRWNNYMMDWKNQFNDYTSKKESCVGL
# hAChE-induced Aβ40 aggregation, sequence (P22303 32-614): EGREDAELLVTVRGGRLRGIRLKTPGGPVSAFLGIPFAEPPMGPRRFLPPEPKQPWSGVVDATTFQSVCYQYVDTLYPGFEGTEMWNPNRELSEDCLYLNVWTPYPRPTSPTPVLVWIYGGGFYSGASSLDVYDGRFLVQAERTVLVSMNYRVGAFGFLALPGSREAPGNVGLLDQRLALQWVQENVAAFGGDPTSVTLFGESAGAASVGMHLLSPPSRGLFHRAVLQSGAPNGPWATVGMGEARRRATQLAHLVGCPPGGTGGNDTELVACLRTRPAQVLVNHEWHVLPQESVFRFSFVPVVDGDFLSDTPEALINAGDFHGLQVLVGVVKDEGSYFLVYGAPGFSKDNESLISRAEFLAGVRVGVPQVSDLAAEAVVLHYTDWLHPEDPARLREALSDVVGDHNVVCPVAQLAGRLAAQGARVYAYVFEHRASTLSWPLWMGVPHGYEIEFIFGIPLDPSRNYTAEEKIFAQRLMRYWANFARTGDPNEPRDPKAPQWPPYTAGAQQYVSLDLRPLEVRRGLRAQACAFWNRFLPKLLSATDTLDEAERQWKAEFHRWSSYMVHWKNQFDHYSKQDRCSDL
# hAChE, sequence (P22303 32-614): as above
# T1 sequence (P34972 whole entry): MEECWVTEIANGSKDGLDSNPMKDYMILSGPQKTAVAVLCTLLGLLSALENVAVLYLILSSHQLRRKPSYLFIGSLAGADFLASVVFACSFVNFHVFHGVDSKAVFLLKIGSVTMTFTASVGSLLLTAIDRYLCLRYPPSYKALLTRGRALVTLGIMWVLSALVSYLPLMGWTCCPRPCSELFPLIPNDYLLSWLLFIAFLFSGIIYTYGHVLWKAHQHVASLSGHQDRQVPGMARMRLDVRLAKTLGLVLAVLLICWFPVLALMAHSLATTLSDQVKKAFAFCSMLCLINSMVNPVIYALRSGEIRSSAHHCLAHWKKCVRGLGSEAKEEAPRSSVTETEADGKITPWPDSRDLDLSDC
# eeAChE, sequence (O42275 24-633): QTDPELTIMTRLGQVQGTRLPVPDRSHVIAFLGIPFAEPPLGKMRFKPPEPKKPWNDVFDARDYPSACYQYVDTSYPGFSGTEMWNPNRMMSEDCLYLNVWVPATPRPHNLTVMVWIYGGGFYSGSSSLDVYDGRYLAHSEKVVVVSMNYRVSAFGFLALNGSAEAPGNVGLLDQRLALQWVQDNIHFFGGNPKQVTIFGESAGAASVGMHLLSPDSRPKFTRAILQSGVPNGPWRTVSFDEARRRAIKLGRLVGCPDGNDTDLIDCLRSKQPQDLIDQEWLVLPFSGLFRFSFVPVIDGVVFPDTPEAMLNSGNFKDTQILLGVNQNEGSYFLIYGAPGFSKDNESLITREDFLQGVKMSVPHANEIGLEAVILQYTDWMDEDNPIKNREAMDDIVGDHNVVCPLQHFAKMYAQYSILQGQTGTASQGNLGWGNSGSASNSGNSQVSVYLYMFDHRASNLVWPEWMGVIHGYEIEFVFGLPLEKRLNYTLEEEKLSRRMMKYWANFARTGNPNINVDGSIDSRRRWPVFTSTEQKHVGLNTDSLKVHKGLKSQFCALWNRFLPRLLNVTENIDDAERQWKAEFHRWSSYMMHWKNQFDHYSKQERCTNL
# T2 sequence (P21554 whole entry): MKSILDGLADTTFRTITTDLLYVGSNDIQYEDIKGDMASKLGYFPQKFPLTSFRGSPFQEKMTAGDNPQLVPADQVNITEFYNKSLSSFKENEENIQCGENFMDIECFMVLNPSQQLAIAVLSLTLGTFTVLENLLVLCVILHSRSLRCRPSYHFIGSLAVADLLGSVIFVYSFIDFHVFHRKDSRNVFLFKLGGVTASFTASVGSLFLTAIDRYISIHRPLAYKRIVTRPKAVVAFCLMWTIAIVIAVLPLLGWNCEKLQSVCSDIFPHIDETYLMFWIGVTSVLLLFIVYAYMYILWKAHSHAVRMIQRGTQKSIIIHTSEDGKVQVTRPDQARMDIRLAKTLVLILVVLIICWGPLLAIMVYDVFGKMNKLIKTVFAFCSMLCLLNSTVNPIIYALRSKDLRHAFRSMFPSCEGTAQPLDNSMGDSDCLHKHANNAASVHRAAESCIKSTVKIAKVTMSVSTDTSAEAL
Compound,neuroprotective behavior (in words) (HT-22 cells),dose that significantly prevented Aβ25-35-induced learning impairments [1],Ki (hCB2R [2]),Ki (hCB2R [2]; read-out: Ki hCB2R),"[^3H]CP 55,940 displ. @10 µM hCB1R (hCB1R)",most effective dose (completely prevented Aβ25-35 impairments in both tests) [1],IC50 (eeAChE; [6]),pIC50 ± SD hCB2R (in brackets after Ki) (hCB2R [2]),inhibition at 50 µM (Aβ42; [7]),inhibition of Aβ42 self-aggregation (in words) (Aβ42),inhibition of AChE-induced Aβ40 aggregation (in words) [4],inhibition at 100 µM [4],further results
"CCOc1ccc(Cc2nc3cc(C(=O)N(CC)CC)ccc3n2CCCCCNc2c3c(nc4ccccc24)CCCC3)cc1 [3d, 2-(4-Ethoxybenzyl)-N,N-diethyl-1-(5-((1,2,3,4-tetrahydroacridin-9-yl)amino)pentyl)-1H-benzo[d]imidazole-5-carboxamide]",none,0.3 mg/kg,7940 nM,7300 nM,21%,–,–,–,–,–,–,–,pIC50 ± SD AChE (hAChE) (hAChE): 199 nM^b 641 nM^c (6.2 ± 0.1); IC50 (hAChE; IC50 AChE (hAChE)): 641 nM; IC50 (eeAChE): 199 nM
"CCOc1ccc(Cc2nc3cc(C(=O)NCCNc4c5c(nc6ccccc46)CCCC5)ccc3n2CCC(C)C)cc1 [4a, 2-(4-Ethoxybenzyl)-1-isopentyl-N-(2-((1,2,3,4-tetrahydroacridin-9-yl)amino)ethyl)-1H-benzo[d]imidazole-5-carboxamide]",–,0.3 mg/kg,–,2500 nM,–,1 mg/kg,2.1 nM,2.5 µM (5.6 ± 0.2),–,–,–,–,NO release / nitrite accumulation [3]: reduced; IL1β release ([3]; M1 marker): significantly decrease; iNOS expression ([3]; M1 marker): significantly decrease; TGFβ2 expression ([3]; M2 marker): not reduced; TREM2 expression ([3]; M2 marker): not reduced
"CCOc1ccc(Cc2nc3cc(C(=O)NCCCNc4c5c(nc6ccccc46)CCCC5)ccc3n2CCC(C)C)cc1 [4b, 2-(4-Ethoxybenzyl)-1-isopentyl-N-(3-((1,2,3,4-tetrahydroacridin-9-yl)amino)propyl)-1H-benzo[d]imidazole-5-carboxamide]",–,–,–,5000 nM,20%,–,3.2 nM,5.0 µM (5.3 ± 0.1),16.4 ± 4.2%,quite weak,significantly reduce,47.8 ± 9.6%,inhibitory activity towards hAChE compared to tacrine (hAChE; compared to tacrine): higher inhibitory activity; inhibitory potency towards hBChE compared to tacrine (hBChE; compared to tacrine): increased inhibitory potency
"CCOc1ccc(Cc2nc3cc(C(=O)NCCCCNc4c5c(nc6ccccc46)CCCC5)ccc3n2CCC(C)C)cc1 [4c, 2-(4-Ethoxybenzyl)-1-isopentyl-N-(4-((1,2,3,4-tetrahydroacridin-9-yl)amino)butyl)-1H-benzo[d]imidazole-5-carboxamide]",–,–,2510 nM,2400 nM,9%,–,12.8 nM,–,–,–,–,–,MIF gene expression (hCB2R [5]): reduced; STAT-3 gene expression (hCB2R [5]): reduced; behavior at the hCB2R (hCB2R [5]): maintained their agonist behavior
"Nc1c2c(nc3ccccc13)CCCC2 [Tacrine 1, tacrine, reference compound]",–,–,–,–,–,–,–,–,–,no effect,–,–,inhibition at 50 µM (Aβ42): < 5%
"CCOc1ccc(Cc2nc3cc(C(=O)NCCSSCCNc4c5c(nc6ccccc46)CCCC5)ccc3n2CCC(C)C)cc1 [compound 8, 2-(4-Ethoxybenzyl)-1-isopentyl-N-(2-((2-((1,2,3,4-tetrahydroacridin-9-yl)amino)ethyl)disulfaneyl)ethyl)-1H-benzo[d]imidazole-5-carboxamide]",neuroprotection comparable to the positive control quercetin; also recorded: showed neuroprotection,0.3 mg/kg,6310 nM,6800 nM,45%,0.3 mg/kg,44 nM,–,83.4 ± 6.4%,strongly inhibited,not able to significantly inhibit,5 ± 2.6%,"pIC50 ± SD AChE (hAChE) (hAChE; hAChE recombinant expressed): 7.9 ± 0.1; IC50 (hAChE; hAChE recombinant expressed, read-out: IC50 AChE (hAChE)): 13.4 nM; dose given for the high in vivo efficacy (conclusion) [1]: 0.1 mg/kg; pIC50 ± SD hBChE (hBChE; hBChE from human serum): 7.1 ± 0.1; IC50 (hBChE; hBChE from human serum, means of at least three determinations, read-out: IC50 hBChE): 77 nM; affinity towards hCB2R (in words) (hCB2R [2]): no significant effect on affinity"
